In US10716769B2 (GUANGZHOU JTREAT BIOSCI. LTD., priority 2015, dated 2020):
In brackets after ≈: the same amount, converted by molar mass.

Columns and labels:
[1] = system: human umbilical vein endothelial cell line (ECV304); assay: MTT in vitro cell inhibition; type: cell-based; conditions: 3 days
Source text: An effective amount of the above compounds and/or the compositions containing the same used as an active ingredient have an effect on inhibiting the tumor cells. The present invention detects the inhibitory effect of the hydroxy-substituted benzophenone compounds on the proliferation of the in vitro cultured human tumor cells by the methylthiazolyl tetrazolium method.
The method is used to detect cell viability. […] Particles can be dissolved by dimethyl sulfoxide (DMSO) isopropyl alcohol or 10% acidified SDS (sodium dodecyl sulfate), and a microplate reader is used to measure the OD value at A570 wavelength, which indirectly reflects the number of live cells. The method is used for detection of the cytokines bioactivity, as well as anti-tumor drugs and tumor radiosensitivity and cytotoxicity test, and has the characteristics of being simple, fast, economical, sensitive and accurate and having good reproducibility and no need to use radionuclides. This method has been widely used in screening preclinical anticancer drugs and detecting the drug sensitivity of fresh tumor cells. The method is as below:
(1) The tumor cell suspension prepared by 0.25% of trypsin digestion and adjusted to a cell concentration of 10^5/ml with RPMI1640 containing 10% fetal calf serum is added to a 96-well plate with 100 μl for each well, cultured 24 hours, and then different dosages of drugs are added with 100 μl/well, for which, the negative control groups, positive control groups and withering wells are set, and 4 parallel wells are set for each group.
(2) They are continually cultured in incubator containing 5% of CO2 at 37° C. for 24 to 48 hours. MTT solution (5 g/L) is added to each well before the termination of the experiment. The OD value at A570 nm is detected by microplate reader. The OD value at A570 of the negative group without the addition of drugs is taken as a control. The cell survival rate and cell inhibition rate of drugs are calculated according to the following formula: Cell survival rate=(OD value of test group/OD value of control group)×100% Cell inhibition rate (%)=(OD value of the control group−OD value of the test group/(OD value of the control group−OD value of the blank group)
1. Tumor cell lines: human glioma cell line (U251), human colon cancer cell line (LOVO), human hepatoma cell line (HepG2), human lung cancer cell line (PC84045), human endometrial carcinoma cell line (JEC), human renal carcinoma (GRC), human gastric cancer cell line (MCG804), human cervical cancer cell line (HeLa), human hepatocellular carcinoma cell line (BEL-7402) and human umbilical vein endothelial cell line (ECV304) purchased from Animal Experimental Center of Zhongshan Medical College, and preserved by the present laboratory.
The tumor cell lines are cultured in RPMI-1640 medium containing 15% of the newborn bovine serum in a conventional manner, placed in the humidification incubator containing 5% of CO2 for being cultured at 37° C., and are observed for growth by an inverted microscope. A subculture is conducted every about 3-5 days, the cells in logarithmic growth phase are adopted to be digested with 0.25% of trypsin, and the serum-free RPMI-1640 medium is used for culturing the cell suspension; the blood counting plate makes counting, the trypan blue exclusion tests the cell activity, and the cell viability>95% is used for formal tests.
Liquid preparation: the compounds are labeled with the codes respectively, DMSO is used to dissolve each compound, the bacterial filter is used to remove bacteria, and each compound is prepared into 10^−4 g/ml, 10^−5 g/ml, 10^−6 g/ml and preserved at 4° C. for use. […]

Vero cells = assay: Half toxic concentration in the anti-herpes screening; type: cell-based, African green monkey
Method: Vero cells (kidney cells of African green monkey) are used as viral hosts to test the inhibition degree of the samples to cytopathic effects of the Vero cell caused by herpes virus type I and type II. 2. Sample treatment: the sample is dissolved in DMSO at an appropriate concentration before use, and diluted with the culture medium 3 times at a total of 8 dilutions for test. 4.

HSV-II, SAV strain = assay: Inhibition of cytopathic effects of Vero cells caused by herpes virus type II; type: cell-based; conditions: Human alphaherpesvirus 2; Vero cells, CPE 48 hours, Reed-Muench; read-out: IC50 Against HSV-II
Source text: Vero cells (kidney cells of African green monkey) are used as viral hosts to test the inhibition degree of the samples to the cytopathic effects of Vero cells caused by herpes virus type I and type II.
Vero cells (kidney cells of African green monkey) are used as viral hosts to test the inhibition degree of the samples to cytopathic effects of the Vero cell caused by herpes virus type I and type II.
1. Virus strains: HSV-I, VR733 strain, and HSV-II, SAV strain, which both are provided by ATCC.
2. Sample treatment: the sample is dissolved in DMSO at an appropriate concentration before use, and diluted with the culture medium 3 times at a total of 8 dilutions for test.
3. Positive control drug: acyclovir (ACV) produced by the Hubei Ke Yi pharmaceutical factory.

Row | Compound | Inhibitory rate % ([1]; ECV304, 10^−4 g/ml) [%] | Inhibitory rate % ([1]; ECV304, 10^−5 g/ml) [%] | Inhibitory rate, sensitivity class ([1]; ECV304, 10^−6 g/ml) | TC50 half toxic concentration (Vero cells) [µg/mL] | IC50 (HSV-II, SAV strain) [µg/mL] | Inhibitory rate % ([1]; ECV304, 10^−6 g/ml) [%] | Inhibitory rate, sensitivity class ([1]; ECV304, 10^−5 g/ml)
1 | O=C(c1ccccc1)c1ccc(O)c(O)c1O [2,3,4-trihydroxybenzophenone] | 89.63 | 45.81 | insensitive (<30% means insensitive) | 53.42 (≈ 232 µM) | 28.7 (≈ 125 µM) |  | 
2 | O=C(c1cc(O)c(O)cc1O)c1ccc(O)c(O)c1O | 72.41 | 53.62 |  | 86.23 (≈ 310 µM) |  | 30.75 | 
3 | O=C(c1ccc(O)cc1O)c1ccc(O)cc1O [2,4,2′,4′-tetrahydroxybenzophenone] | 42.13 |  | insensitive (<30% means insensitive) | 111.11 (≈ 451 µM) | 28.7 (≈ 117 µM) |  | insensitive (<30% means insensitive)
4 | O=C(c1ccc(O)c(O)c1O)c1ccc(O)c(O)c1O [2,3,4,2′,3′,4′-hexahydroxybenzophenone] | 79.37 |  | insensitive (<30% means insensitive) | 12.35 (≈ 44.4 µM) | 10.8 (≈ 39 µM) |  | insensitive (<30% means insensitive)
